According to publication PMC11566078, “Bactericidal activities and biochemical features of 16 antimicrobial peptides against bovine-mastitis causative pathogens” (Veterinary Research, 2024):
In brackets after ≈: the same amount, converted by molar mass. Like-named read-outs stand apart in the source and are kept apart here.

Key:
Type in all cases: cell-based
[1] = tested on: Staphylococcus chromogenes; test: microbe, parasite or virus in culture; settings: Staphylococcus chromogenes, read-out: Minimal inhibitory concentration, Staphylococcus chromogenes
Description: (§1) All plates were cultivated aerobically.
(§2) Experiments were conducted in triplicate.

[2] = tested on: Glutamicibacter halophytocola; test: microbe, parasite or virus in culture; settings: Glutamicibacter halophytocola; field isolate from milk; BHI broth; WST colourimetric, 37 °C 6 h; triplicate; read-out: Minimal inhibitory concentration, Glutamicibacter halophytocola
Description: as §1, §2

[3] = tested on: Staphylococcus epidermidis; test: microbe, parasite or virus in culture; settings: Staphylococcus epidermidis; field isolate from milk; WST colourimetric, 37 °C 6 h; triplicate; read-out: Minimal inhibitory concentration, Staphylococcus epidermidis
Description: as §1, §2

Aeromonas hydrophila = test: microbe, parasite or virus in culture; settings: Aeromonas hydrophila; Gram-negative field isolate from milk; BHI broth; WST colourimetric, 37 °C 6 h; triplicate; read-out: Minimal inhibitory concentration, Aeromonas hydrophila
Description: as §1, §2

Corynebacterium simulans = test: microbe, parasite or virus in culture; settings: Corynebacterium simulans; field isolate from milk; BHI broth; WST colourimetric, 37 °C 6 h; triplicate; read-out: Minimal inhibitory concentration, Corynebacterium simulans
Description: as §1, §2

Streptococcus uberis = test: microbe, parasite or virus in culture; settings: Streptococcus uberis; field isolate from milk; BHI broth; WST colourimetric, 37 °C 6 h; triplicate; read-out: Minimal inhibitory concentration, Streptococcus uberis
Description: as §1, §2

Staphylococcus xylosus = test: microbe, parasite or virus in culture; settings: Staphylococcus xylosus, read-out: Minimal inhibitory concentration, Staphylococcus xylosus
Description: as §1, §2

[4] = tested on: Staphylococcus haemolyticus; test: MIC against field isolate from milk with high SCC; settings: Staphylococcus haemolyticus, read-out: Minimal inhibitory concentration, Staphylococcus haemolyticus
Description: as §1, §2

[5] = tested on: Staphylococcus aureus ATCC 6538; test: microbe, parasite or virus in culture; settings: Staphylococcus aureus, ATCC6538; ATCC 6538; MH broth; WST colourimetric, 37 °C 6 h; triplicate; read-out: Minimal inhibitory concentration, Staphylococcus aureus
Description: (§3) The standard bacterial strains used for antimicrobial activity assays include Staphylococcus aureus ATCC (American Type Culture Collection, Manassas, VA, USA) 6538, Bacillus cereus ATCC 10876, Enterococcus faecalis ATCC 29212, Streptococcus […] 27956, Streptococcus dysgalactiae ATCC 27957, Streptococcus equi subsp. zooepidemicus ATCC 43079, Escherichia coli ATCC 25922, and Pseudomonas aeruginosa ATCC 27853. Most bacterial strains were cultured in LB medium except for E. faecalis and streptococci, which were cultivated in brain heart infusion (BHI) broth (BD Bioscience). […] Experiments were conducted in triplicate.

[6] = tested on: Bacillus cereus ATCC 10876; test: microbe, parasite or virus in culture; settings: Bacillus cereus, ATCC10876; ATCC 10876; MH broth; WST colourimetric, 37 °C 6 h; triplicate; read-out: Minimal inhibitory concentration, Bacillus cereus
Description: as §3

[7] = tested on: Streptococcus agalactiae ATCC 27956; test: microbe, parasite or virus in culture; settings: Streptococcus agalactiae, ATCC27956; ATCC 27956; BHI broth; WST colourimetric, 37 °C 6 h; triplicate; read-out: Minimal inhibitory concentration, Streptococcus agalactiae
Description: as §3

[8] = tested on: Escherichia coli ATCC 25922; test: microbe, parasite or virus in culture; settings: Escherichia coli, ATCC25922, 8 h, MH broth, WST colourimetric, 1.5 × 10^5 cells/well, 37 °C 6 h + 2 h reagent, A450, triplicate, read-out: Minimal inhibitory concentration, Escherichia coli
Description: as §3

[9] = tested on: Streptococcus equi subsp. zooepidemicus ATCC 43079; test: microbe, parasite or virus in culture; settings: Streptococcus equi, ATCC43079; ATCC 43079; BHI broth; WST colourimetric, 37 °C 6 h; triplicate; read-out: Minimal inhibitory concentration, Streptococcus equi subsp. zooepidemicus
Description: as §3

[10] = tested on: Pseudomonas aeruginosa ATCC 27853; test: microbe, parasite or virus in culture; settings: Pseudomonas aeruginosa, ATCC27853; ATCC 27853; CAMHB; WST colourimetric, 37 °C 6 h; triplicate; read-out: Minimal inhibitory concentration, Pseudomonas aeruginosa
Description: as §3

[11] = tested on: Enterococcus faecalis ATCC 29212; test: microbe, parasite or virus in culture; settings: Enterococcus faecalis, ATCC29212; ATCC 29212; BHI broth; WST colourimetric, 37 °C 6 h; triplicate; read-out: Minimal inhibitory concentration, Enterococcus faecalis
Description: as §3

[12] = tested on: Streptococcus dysgalactiae ATCC 27957; test: microbe, parasite or virus in culture; settings: Streptococcus dysgalactiae, ATCC27957; ATCC 27957; BHI broth; WST colourimetric, 37 °C 6 h; triplicate; read-out: Minimal inhibitory concentration, Streptococcus dysgalactiae
Description: as §3

[13] = field isolate from milk, WST colourimetric, 37 °C 6 h, triplicate
[14] = value in brackets, Additional file 6, field isolate

Compound	MIC [1, 13] [µg/mL]	MIC [1, 14] [µM]	MIC [2] [µg/mL]	MIC [3] [µg/mL]	MIC (Aeromonas hydrophila) [µg/mL]	MIC (Corynebacterium simulans) [µg/mL]	MIC (Streptococcus uberis) [µg/mL]	MIC (Staphylococcus xylosus; [13]) [µg/mL]	MIC (Staphylococcus xylosus; [14]) [µM]	MIC [4, 13] [µg/mL]	MIC [4, 14] [µM]	MIC [5] [µg/mL]	MIC [6] [µg/mL]	MIC [7] [µg/mL]	MIC [8] [µg/mL]	MIC [9] [µg/mL]	MIC [10] [µg/mL]	MIC [11] [µg/mL]	MIC [12] [µg/mL]
CC1(C)S[C@@H]2[C@H](NC(=O)[C@H](N)c3ccccc3)C(=O)N2[C@H]1C(=O)O [Ampicillin, reference compound]	5	0.0143	15 (≈ 42.9 µM)	5 (≈ 14.3 µM)	> 240	> 240	> 240	5	0.0143	10	0.0286	2 (≈ 5.72 µM)	80 (≈ 229 µM)	4 (≈ 11.4 µM)	5	2 (≈ 5.72 µM)	> 640	10 (≈ 28.6 µM)	2 (≈ 5.72 µM)
O=C(N[C@H](CO)[C@H](O)c1ccc([N+](=O)[O-])cc1)C(Cl)Cl [Chloramphenicol, reference compound]	18	0.0558	3 (≈ 9.28 µM)	5 (≈ 15.5 µM)	5 (≈ 15.5 µM)	8 (≈ 24.8 µM)	50 (≈ 155 µM)	8	0.0248	10	0.031	8 (≈ 24.8 µM)	10 (≈ 30.9 µM)	5 (≈ 15.5 µM)	3	5 (≈ 15.5 µM)	80 (≈ 248 µM)	10 (≈ 30.9 µM)	4 (≈ 12.4 µM)
